Data published in ChEMBL document CHEMBL1201862, “PubChem BioAssay data set” (2004).
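Cells were grown in 96-well plates and exposed to each compound for 48 hours at five concentrations; endpoints were interpolated linearly between bracketing concentrations, or set to the highest concentration if not reached. The concentration for 50% growth inhibition is given as GI50.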 Active and inactive are the calls of the source. No stated cut-off is given here; in the data, active = GI50 up to about 1.1 µM and inactive = higher.

How the values were obtained:
Experiment in all cases: NCI anticancer screen, dose series, 48 h
DMS-114 = test system: DMS-114
KM-20L2 = test system: KM-20L2
M19-MEL = test system: M19-MEL
DMS-273 = test system: DMS-273
HOP-18 = test system: HOP-18
LXFL 529 = test system: LXFL 529
DLD-1 = test system: DLD-1
RXF 631 = test system: RXF 631
XF498 = test system: XF498

SMILES: COc1cccc(NC(=O)CC(=O)N2N=C(n3ccc4ccccc43)CC2c2ccccc2)c1 (stereo unspecified)
- GI50 (DMS-114): > 100 µM (inactive)
- GI50 (KM-20L2): > 100 µM (inactive)
- GI50 (M19-MEL): > 100 µM (inactive)
- GI50 (DMS-273): > 100 µM (inactive)
- GI50 (HOP-18): > 100 µM (inactive)
- GI50 (LXFL 529): > 100 µM (inactive)
- GI50 (DLD-1): > 100 µM (inactive)

SMILES: CCOc1cc2c(cc1OC)c[n+](C)c1c3cc(OC)c(OC)cc3ccc21
- GI50 (DMS-114): 18.2 µM (inactive)
- GI50 (KM-20L2): > 100 µM (inactive)
- GI50 (RXF 631): 22.6 µM (inactive)
- GI50 (M19-MEL): > 56.1 µM (inactive)
- GI50 (DMS-273): 27.8 µM (inactive)
- GI50 (HOP-18): > 48.6 µM (inactive)
- GI50 (LXFL 529): 27 µM (inactive)
- GI50 (DLD-1): > 78.2 µM (inactive)

SMILES: COc1cc2c(c(OC)c1)C(=O)C(=O)C(CC1(C)OCCCO1)=C2
- GI50 (DMS-114): 3.59 µM (inactive)
- GI50 (KM-20L2): 17.9 µM (inactive)
- GI50 (RXF 631): 17.4 µM (inactive)
- GI50 (M19-MEL): 2.32 µM (inactive)
- GI50 (DMS-273): 13.6 µM (inactive)
- GI50 (HOP-18): 10.4 µM (inactive)
- GI50 (LXFL 529): 4.51 µM (inactive)
- GI50 (XF498): 12.8 µM (inactive)
- GI50 (DLD-1): 2.93 µM (inactive)

SMILES: CCOC(OCC)c1ccc(/C=C/c2cc(OC)c(OC)c(OC)c2)cc1
- GI50 (DMS-114): 20.7 µM (inactive)
- GI50 (KM-20L2): 18.7 µM (inactive)
- GI50 (RXF 631): 20 µM (inactive)
- GI50 (M19-MEL): 19.9 µM (inactive)
- GI50 (DMS-273): 17.6 µM (inactive)
- GI50 (HOP-18): 61.4 µM (inactive)
- GI50 (LXFL 529): 16.1 µM (inactive)
- GI50 (DLD-1): 16.1 µM (inactive)

SMILES: COc1cccc(N2C(=O)c3c(c4[nH]c5ccccc5c4c4ccc(C(C)(C)C)cc34)C2=O)c1
- GI50 (DMS-114): > 100 µM (inactive)
- GI50 (KM-20L2): > 100 µM (inactive)
- GI50 (RXF 631): > 100 µM (inactive)
- GI50 (M19-MEL): > 100 µM (inactive)
- GI50 (DMS-273): > 100 µM (inactive)
- GI50 (HOP-18): > 100 µM (inactive)
- GI50 (LXFL 529): > 100 µM (inactive)
- GI50 (XF498): > 100 µM (inactive)
- GI50 (DLD-1): > 100 µM (inactive)

SMILES: C=C(COC(C)=O)CC(/C=C(\C)CC/C=C(\C)CO)OC(C)=O (stereo unspecified)
- GI50 (KM-20L2): > 100 µM (inactive)
- GI50 (RXF 631): > 100 µM (inactive)
- GI50 (M19-MEL): > 100 µM (inactive)
- GI50 (DMS-273): > 100 µM (inactive)
- GI50 (LXFL 529): > 100 µM (inactive)
- GI50 (XF498): > 100 µM (inactive)
- GI50 (DLD-1): > 100 µM (inactive)

SMILES: Cc1cccc(C)c1NC(=O)CCC/C(CC(=O)c1ccc(F)cc1)=N\NC(=O)C(=O)NN
- GI50 (DMS-114): > 100 µM (inactive)
- GI50 (KM-20L2): > 100 µM (inactive)
- GI50 (RXF 631): > 100 µM (inactive)
- GI50 (M19-MEL): > 100 µM (inactive)
- GI50 (DMS-273): > 100 µM (inactive)
- GI50 (HOP-18): > 100 µM (inactive)
- GI50 (LXFL 529): > 100 µM (inactive)
- GI50 (XF498): > 100 µM (inactive)
- GI50 (DLD-1): > 100 µM (inactive)

SMILES: CN(C)CCS/C(=N\c1ccccc1)N1C=COC=C1
- GI50 (DMS-114): 14.6 µM (inactive)
- GI50 (KM-20L2): 47.1 µM (inactive)
- GI50 (M19-MEL): 17.5 µM (inactive)
- GI50 (DMS-273): 18.4 µM (inactive)
- GI50 (HOP-18): 59.8 µM (inactive)
- GI50 (LXFL 529): 16.4 µM (inactive)
- GI50 (XF498): 31.2 µM (inactive)
- GI50 (DLD-1): 17.4 µM (inactive)

SMILES: Cn1cnc([N+](=O)[O-])c1Sc1nccn1-c1cccc2ccccc12
- GI50 (DMS-114): 22 µM (inactive)
- GI50 (KM-20L2): 64.1 µM (inactive)
- GI50 (RXF 631): 22.3 µM (inactive)
- GI50 (M19-MEL): 25.7 µM (inactive)
- GI50 (DMS-273): 25.2 µM (inactive)
- GI50 (HOP-18): 2.52 µM (inactive)
- GI50 (LXFL 529): 18.5 µM (inactive)
- GI50 (XF498): 16.6 µM (inactive)
- GI50 (DLD-1): 24.2 µM (inactive)

SMILES: CCOC(=O)/C(C#N)=C(O)/C(=C\c1ccc(Br)cc1)NC(=O)c1ccccc1
- GI50 (DMS-114): > 100 µM (inactive)
- GI50 (KM-20L2): > 100 µM (inactive)
- GI50 (RXF 631): > 100 µM (inactive)
- GI50 (M19-MEL): > 100 µM (inactive)
- GI50 (DMS-273): > 100 µM (inactive)
- GI50 (HOP-18): > 100 µM (inactive)
- GI50 (LXFL 529): > 100 µM (inactive)
- GI50 (DLD-1): > 100 µM (inactive)

SMILES: COc1ccc2occ(CCC(=O)O)c2c1
- GI50 (DMS-114): > 100 µM (inactive)
- GI50 (KM-20L2): > 100 µM (inactive)
- GI50 (M19-MEL): > 100 µM (inactive)
- GI50 (DMS-273): > 100 µM (inactive)
- GI50 (HOP-18): > 100 µM (inactive)
- GI50 (LXFL 529): > 100 µM (inactive)
- GI50 (XF498): > 100 µM (inactive)
- GI50 (DLD-1): > 100 µM (inactive)

SMILES: O=C1CC[C@@H](S(=O)(=O)c2ccccc2)[C@H](/C=C/c2ccccc2)O1
- GI50 (DMS-114): > 100 µM (inactive)
- GI50 (KM-20L2): > 10 µM (inactive)
- GI50 (M19-MEL): > 100 µM (inactive)
- GI50 (HOP-18): > 100 µM (inactive)
- GI50 (LXFL 529): > 100 µM (inactive)
- GI50 (XF498): < 0.01 µM (active)

SMILES: O=C(O)C1=NN=C(C(=O)O)NN1
- GI50 (KM-20L2): > 100 µM (inactive)
- GI50 (M19-MEL): > 100 µM (inactive)
- GI50 (DMS-273): > 100 µM (inactive)
- GI50 (HOP-18): > 100 µM (inactive)
- GI50 (LXFL 529): > 100 µM (inactive)
- GI50 (DLD-1): > 100 µM (inactive)

SMILES: O=C(Cn1ccnc1[N+](=O)[O-])c1ccccc1
- GI50 (KM-20L2): > 100 µM (inactive)
- GI50 (M19-MEL): > 100 µM (inactive)
- GI50 (DMS-273): > 100 µM (inactive)
- GI50 (LXFL 529): > 100 µM (inactive)
- GI50 (XF498): > 100 µM (inactive)
- GI50 (DLD-1): > 100 µM (inactive)

SMILES: CC(=O)N1CC(=O)NC1=S
- GI50 (DMS-114): > 100 µM (inactive)
- GI50 (KM-20L2): > 100 µM (inactive)
- GI50 (M19-MEL): > 100 µM (inactive)
- GI50 (DMS-273): > 100 µM (inactive)
- GI50 (LXFL 529): > 100 µM (inactive)
- GI50 (XF498): > 100 µM (inactive)
- GI50 (DLD-1): > 100 µM (inactive)

SMILES: Cn1cc2ccccc2c1-c1nc(F)nc(OCC(=O)[C@H]2CCC3[C@@H]4CCC5=CC(=O)CC[C@]5(C)C4[C@@H](O)C[C@@]32C)n1 (stereo partly specified)
- GI50 (DMS-114): 7.52 µM (inactive)
- GI50 (KM-20L2): 26.1 µM (inactive)
- GI50 (RXF 631): 2.33 µM (inactive)
- GI50 (M19-MEL): 4.34 µM (inactive)
- GI50 (DMS-273): 15.6 µM (inactive)
- GI50 (HOP-18): 15.5 µM (inactive)
- GI50 (LXFL 529): 3.72 µM (inactive)
- GI50 (XF498): 8.65 µM (inactive)
- GI50 (DLD-1): 8.89 µM (inactive)

SMILES: COC(=O)c1c2cccccc-2c(Cc2c3cccccc-3c(C(=O)OC)c2O)c1O
- GI50 (DMS-114): > 100 µM (inactive)
- GI50 (KM-20L2): > 100 µM (inactive)
- GI50 (M19-MEL): > 100 µM (inactive)
- GI50 (DMS-273): > 100 µM (inactive)
- GI50 (HOP-18): > 100 µM (inactive)
- GI50 (XF498): > 100 µM (inactive)
- GI50 (DLD-1): > 100 µM (inactive)

SMILES: Cc1cc([N+](=O)[O-])ccc1Sc1c2ccccc2nc2ccccc12
- GI50 (KM-20L2): 31.4 µM (inactive)
- GI50 (DMS-273): 33 µM (inactive)
- GI50 (HOP-18): 64 µM (inactive)
- GI50 (LXFL 529): 18.7 µM (inactive)
- GI50 (XF498): 17.5 µM (inactive)
- GI50 (DLD-1): 25.4 µM (inactive)

SMILES: CCN(CC)C(=S)SCC(=O)Nc1nc2c(s1)CCCC2
- GI50 (DMS-114): 67.8 µM (inactive)
- GI50 (KM-20L2): > 100 µM (inactive)
- GI50 (M19-MEL): 52.7 µM (inactive)
- GI50 (DMS-273): 88.5 µM (inactive)
- GI50 (LXFL 529): 47.2 µM (inactive)
- GI50 (XF498): 18.7 µM (inactive)
- GI50 (DLD-1): 94 µM (inactive)

SMILES: CC(=O)c1cccc(NC2C(N)C(NC(=O)N(C)C)(C(C)O)C(C)(O)C2(O)COC(=O)c2c(C)cccc2O)c1 (stereo unspecified)
- GI50 (DMS-114): 0.01 µM (active)
- GI50 (KM-20L2): 0.01 µM (active)
- GI50 (M19-MEL): 0.01 µM (active)
- GI50 (LXFL 529): 0.01 µM (active)

SMILES: COc1ccc2[nH]c3c4c(cc(-c5ccccc5)c3c2c1)C(=O)N(c1ccccc1)C4=O
- GI50 (DMS-114): > 47.8 µM (inactive)
- GI50 (KM-20L2): > 100 µM (inactive)
- GI50 (M19-MEL): 30.5 µM (inactive)
- GI50 (DMS-273): 2.07 µM (inactive)
- GI50 (HOP-18): 24.7 µM (inactive)
- GI50 (LXFL 529): 18.1 µM (inactive)
- GI50 (DLD-1): > 53 µM (inactive)

SMILES: NC(=O)c1ccccc1NC(=O)C(=O)C(C(=O)c1ccc(Cl)c(Cl)c1)C1OC(=O)c2ccccc21 (stereo unspecified)
- GI50 (KM-20L2): 46.9 µM (inactive)
- GI50 (DMS-273): 36.2 µM (inactive)
- GI50 (HOP-18): 33.5 µM (inactive)
- GI50 (LXFL 529): 29.9 µM (inactive)
- GI50 (XF498): > 100 µM (inactive)
- GI50 (DLD-1): 43.3 µM (inactive)
